Laboratory results from patent US10039284B2, “Pesticidal compositions” (priority 2006, dated 2018).
Read-outs that look alike come from different tables or passages of the source.

Tests used:
[1] = test system: Green Peach Aphid (Myzus persicae); assay: Test on Controlling Effects Against Green Peach Aphid (radish leaf dip); format: in vivo; conditions: third day after the dipping; for mortality at 100 ppm: other pesticide alone 100 ppm; for mortality at 200 ppm: other pesticide alone 200 ppm; for mortality at 0.05 ppm: other pesticide alone 0.05 ppm
Method: Japanese radish leaf (cut into about 2 cm×3 cm) was put in a test tube in which water was put, and Larvae of green peach aphid were released on the leaf. […] On the third day after the dipping, dead larvae were counted, and the mortality was calculated from the following equation. Aphids that dropped from leaf or were moribund were included in the number of dead. […] Mortality (%)=(number of dead insects/number of treated insects)×100

[2] = test system: Common Cutworm (Spodoptera litura); assay: whole plant or invertebrate; conditions: for Mortality (%): 5th or 6th day
Method: They were diluted to a predetermined concentration with water containing a spreader (Shin-Rinoh 0.040) and subjected to the test by themselves or as a mixed liquid.
A leaf segment of cabbage was dipped for about 10 seconds in an insecticidal solution and dried in air. A wet filter paper was laid in a petri dish having a diameter of 9 cm, and the dried leaf segment of cabbage was placed thereon. 10 Second-instar larvae of common cutworm were released therein and after putting a cover, left in a constant temperature chamber at 25° C. with lightening. On the 5th or 6th day after release, dead larvae were counted, and the mortality was calculated by the following equation. Here, the insects that were moribund were counted as dead insects. Mortality (%)={(number of dead insects)/(number of surviving insects+number of dead insects)}×100
Further, the theoretical mortality (%) can be calculated from the colby's formula.

[3] = test system: Green Rice Leafhopper (Nephotettix cincticeps); assay: Test on Controlling Effects Against Green Rice Leafhopper (rice seedling dip); format: in vivo
Source text: The root was wrapped with absorbent cotton wet with water, and the rice seedling was put in a test tube.

[4] = Spodoptera litura, in Brassica oleracea, foliar

## CC(C)Oc1cccc(NC(=O)c2ccccc2C(F)(F)F)c1 [Flutolanil, flutolanil]
[1]; Myzus persicae, foliar, other pesticide alone 125 ppm
  mortality at 125 ppm: 0%
[1]; Myzus persicae, foliar, other pesticide alone 250 ppm
  mortality at 250 ppm: 6%

## FC(F)(F)c1ccc(OCCCOc2c(Cl)cc(OCC=C(Cl)Cl)cc2Cl)nc1 [Pyridalyl, pyridalyl]
[2]; [4]
  mortality at 0.4 ppm: 0%
  mortality at 1.5 ppm: 80%

## C/C(=N\C#N)N(C)Cc1ccc(Cl)nc1 [Acetamiprid, acetamiprid]
[2]; [4]
  mortality at 12.5 ppm: 0%
  mortality at 25 ppm: 10%

## CC1(C)C(C=C(Cl)Cl)C1C(=O)OCc1cccc(Oc2ccccc2)c1 (stereo not shown) [Permethrin, permethrin]
[2]; [4]
  mortality at 3.1 ppm: 0%

## CCC1(C(=O)N[C@H](C)c2ccc(Cl)cc2)C(C)C1(Cl)Cl (stereo partly shown) [Carpropamid, carpropamid]
[1]; Myzus persicae, foliar
  mortality at 100 ppm: 82%
  mortality at 200 ppm: 93%

## OCC1=C[C@H](N[C@H]2C[C@H](CO)[C@@H](O[C@@H]3O[C@H](CO)[C@@H](O)[C@H](O)[C@H]3O)[C@H](O)[C@H]2O)[C@H](O)[C@@H](O)[C@@H]1O [Validamycin, validamycin]
[2]; [4]
  mortality at 25 ppm: 0%
  mortality at 50 ppm: 0%

## CN/C(=N/CC1CCOC1)N[N+](=O)[O-] (stereo not shown) [Dinotefuran, dinotefuran]
[2]; [4]
  mortality at 3.1 ppm: 0%
  mortality at 6.2 ppm: 0%
  mortality at 12.5 ppm: 13%

## Cc1c(Cl)cc(-c2ccc(=O)[nH]n2)cc1Cl [Diclomezine, diclomezine]
[1]; Myzus persicae, foliar
  mortality at 100 ppm: 0%
  mortality at 200 ppm: 0%

## CC(C)(C)c1ccc(CSc2cnn(C(C)(C)C)c(=O)c2Cl)cc1 [Pyridaben, pyridaben]
[2]; [4]
  mortality at 100 ppm: 0%
  mortality at 200 ppm: 10%

## CCOCn1c(-c2ccc(Cl)cc2)c(C#N)c(Br)c1C(F)(F)F [Chlorfenapyr, chlorfenapyr]
[2]; [4]
  mortality at 0.4 ppm: 20%

## CC(C)([CH2][Sn]([CH2]C(C)(C)c1ccccc1)([CH2]C(C)(C)c1ccccc1)[O][Sn]([CH2]C(C)(C)c1ccccc1)([CH2]C(C)(C)c1ccccc1)[CH2]C(C)(C)c1ccccc1)c1ccccc1 [fenbutatin oxide]
[2]; other pesticide alone 200 ppm
  Mortality (%): 0%

## Cc1c(COC(=O)[C@@H]2[C@H](/C=C(\Cl)C(F)(F)F)C2(C)C)cccc1-c1ccccc1 (racemic) [Bifenthrin, bifenthrin]
[1]; Myzus persicae, foliar, other pesticide alone 0.025 ppm
  mortality at 0.025 ppm: 0%
[1]; Myzus persicae, foliar
  mortality at 0.05 ppm: 4%
[2]; [4]
  mortality at 0.4 ppm: 0%
  mortality at 0.8 ppm: 40%

## CC1(C)C(C=C(Cl)Cl)C1C(=O)OC(C#N)c1cccc(Oc2ccccc2)c1 (stereo not shown) [Zeta-cypermethrin, zeta-cypermethrin]
[2]; [4]
  mortality at 0.4 ppm: 0%
  mortality at 0.8 ppm: 0%
  mortality at 1.5 ppm: 20%

## CC(=O)N1C(=O)N(NCc2cccnc2)Cc2cc(C(F)(C(F)(F)F)C(F)(F)F)ccc21 [Pyrifluquinazon, pyrifluquinazon]
[2]; other pesticide alone 25 ppm
  Mortality (%): 0%
[2]; other pesticide alone 50 ppm
  Mortality (%): 0%
[2]; other pesticide alone 100 ppm
  Mortality (%): 0%

## Cc1cccc2sc3nncn3c12 [Tricyclazole, tricyclazole]
[1]; Myzus persicae, foliar
  mortality at 100 ppm: 13%
  mortality at 200 ppm: 0%

## Nc1nc(N)nc(NC2CC2)n1 [Cyromazine, cyromazine]
[2]; [4]
  mortality at 25 ppm: 30%
  mortality at 50 ppm: 60%

## C#CCOS(=O)OC1CCCCC1Oc1ccc(C(C)(C)C)cc1 (stereo not shown) [Propargite, propargite]
[2]; [4]
  mortality at 50 ppm: 0%
  mortality at 100 ppm: 0%
  mortality at 200 ppm: 0%

## Cc1ccc(/N=C/N(C)/C=N/c2ccc(C)cc2C)c(C)c1 [Amitraz, amitraz]
[2]; [4]
  mortality at 62.5 ppm: 0%

## spinosad
[2]; other pesticide alone 1.5 ppm
  Mortality (%): 20%
[2]; other pesticide alone 3.1 ppm
  Mortality (%): 60%
[2]; other pesticide alone 6.2 ppm
  Mortality (%): 60%

## Cc1ccc(NC(=O)c2snnc2C)cc1Cl [Tiadinil, tiadinil]
[2]; [4]
  mortality at 50 ppm: 0%
  mortality at 100 ppm: 0%
  mortality at 200 ppm: 0%

## CCCCCCCCCCCCC1=C(OC(C)=O)C(=O)c2ccccc2C1=O [Acequinocyl, acequinocyl]
[2]; [4]
  mortality at 37.5 ppm: 0%
  mortality at 75 ppm: 0%
  mortality at 150 ppm: 0%

## CC1(C)[C@H](C(=O)O[C@H](C#N)c2cccc(Oc3ccccc3)c2)[C@@H]1C=C(Br)Br [Deltamethrin, deltamethrin]
[2]; [4]
  mortality at 0.4 ppm: 30%

## O=C1OCc2c(Cl)c(Cl)c(Cl)c(Cl)c21 [Fthalide, fthalide]
[3]; Nephotettix cincticeps, other pesticide alone 50 ppm, 5th or 6th day
  mortality at 50 ppm: 0%
[3]; Nephotettix cincticeps, other pesticide alone 100 ppm, 5th or 6th day
  mortality at 100 ppm: 0%
[3]; Nephotettix cincticeps, other pesticide alone 200 ppm, 5th or 6th day, read-out: Mortality (%)
  mortality at 200 ppm: 0%
[2]; [4]
  mortality at 50 ppm: 0%
  mortality at 100 ppm: 0%
  mortality at 200 ppm: 0%

## O=C(NC(=O)c1c(F)cccc1F)Nc1cc(Cl)c(OC(F)(F)C(F)C(F)(F)F)cc1Cl (stereo not shown) [Lufenuron, lufenuron]
[2]; [4]
  mortality at 0.0125 ppm: 70%

## CC(C)OC(=O)C(C(=O)OC(C)C)=C1SCCS1 [Isoprothiolane, isoprothiolane]
[3]; Nephotettix cincticeps
  mortality at 200 ppm: 50%

## C/C=C(\C)C(=O)O[C@H]1C[C@@H](OC(C)=O)[C@@]2(C(=O)OC)CO[C@H]3[C@@H](O)[C@@](C)([C@]45O[C@@]4(C)[C@H]4C[C@@H]5O[C@@H]5OC=C[C@@]54O)[C@H]4[C@]1(CO[C@]4(O)C(=O)OC)[C@@H]32 [Azadirachtin, azadirachtin]
[1]; Myzus persicae, foliar, other pesticide alone 6.2 ppm
  mortality at 6.2 ppm: 0%
[1]; Myzus persicae, foliar, other pesticide alone 12.5 ppm
  mortality at 12.5 ppm: 88%
[2]; [4]
  mortality at 3.1 ppm: 0%

## O=[N+]([O-])NC1=NCCN1Cc1ccc(Cl)nc1 [Imidacloprid, imidacloprid]
[1]; Myzus persicae, foliar
  mortality at 0.05 ppm: 60%
[1]; Myzus persicae, foliar, other pesticide alone 0.1 ppm
  mortality at 0.1 ppm: 67%
[2]; [4]
  mortality at 12.5 ppm: 20%
  mortality at 50 ppm: 75%

## CCOP(=O)(SC(C)CC)N1CCSC1=O (stereo not shown) [Fosthiazate, fosthiazate]
[2]; [4]
  mortality at 25 ppm: 88%

## CO/C=C(/C(=O)OC)c1ccccc1Oc1cc(Oc2ccccc2C#N)ncn1 [Azoxystrobin, azoxystrobin]
[3]; other pesticide alone 25 ppm, 5th or 6th day
  Mortality (%): 30%

## O=C(Nc1ccccc1)N(Cc1ccc(Cl)cc1)C1CCCC1 [Pencycuron, pencycuron]
[2]; [4]
  mortality at 125 ppm: 0%

## emamectin-benzoate
[2]; other pesticide alone 0.0025 ppm
  Mortality (%): 0%
[2]; other pesticide alone 0.005 ppm
  Mortality (%): 10%
[2]; other pesticide alone 0.01 ppm
  Mortality (%): 30%

## O=C(NC(=O)c1c(F)cccc1F)Nc1ccc(Oc2ccc(C(F)(F)F)cc2Cl)cc1F [Flufenoxuron, flufenoxuron]
[2]; [4]
  mortality at 0.01 ppm: 0%
  mortality at 0.02 ppm: 20%
  mortality at 0.04 ppm: 20%

## C[C@@H](NC(=O)C(C#N)C(C)(C)C)c1ccc(Cl)cc1Cl (stereo partly shown) [Diclocymet, diclocymet]
[3]; Nephotettix cincticeps
  mortality at 0.4 ppm: 0%
  mortality at 0.8 ppm: 0%
[2]; [4]
  mortality at 18.8 ppm: 0%
  mortality at 37.5 ppm: 0%
  mortality at 75 ppm: 0%

## CN/C(=N\[N+](=O)[O-])NCc1cnc(Cl)s1 [Clothianidin, clothianidin]
[2]; [4]
  mortality at 12.5 ppm: 90%

## N#C/N=C1\SCCN1Cc1ccc(Cl)nc1 [Thiacloprid, thiacloprid]
[2]; [4]
  mortality at 50 ppm: 67%

## C[C@H]1O[C@H](O[C@H]2[C@H](O)[C@@H](O)[C@@H](O)[C@H](O)[C@@H]2O)[C@@H](N)C[C@@H]1NC(=N)C(=O)O [Kasugamycin, kasugamycin]
[1]; other pesticide alone 11.5 ppm
  Mortality (%): 0%

## C=CCOC1=NS(=O)(=O)c2ccccc21 [Probenazole, probenazole]
[1]; Myzus persicae, foliar
  mortality at 100 ppm: 0%
  mortality at 200 ppm: 13%
[3]; Nephotettix cincticeps
  mortality at 200 ppm: 0%

## CCc1ccc(C(=O)NN(C(=O)c2cc(C)cc(C)c2)C(C)(C)C)cc1 [Tebufenozide, tebufenozide]
[2]; [4]
  mortality at 1.5 ppm: 20%

## N#CCNC(=O)c1cnccc1C(F)(F)F [Flonicamid, flonicamid]
[1]; other pesticide alone 0.8 ppm
  Mortality (%): 38%
[1]; other pesticide alone 1.5 ppm
  Mortality (%): 70%
[2]; other pesticide alone 25 ppm
  Mortality (%): 0%
[2]; other pesticide alone 50 ppm
  Mortality (%): 30%
[2]; other pesticide alone 100 ppm
  Mortality (%): 0%

## O=C1CCc2cccc3c2N1CC3 [Pyroquilon, pyroquilon]
[2]; [4]
  mortality at 50 ppm: 0%
  mortality at 100 ppm: 0%
  mortality at 200 ppm: 0%

## O=C(NC(=O)c1c(F)cccc1F)Nc1cc(Cl)c(Oc2ncc(C(F)(F)F)cc2Cl)c(Cl)c1 [Chlorfluazuron, chlorfluazuron]
[2]; [4]
  mortality at 0.0025 ppm: 0%
  mortality at 0.005 ppm: 0%
  mortality at 0.01 ppm: 0%

## Cc1ccccc1C(=O)Nc1cccc(OC(C)C)c1 [Mepronil, mepronil]
[3]; Nephotettix cincticeps
  mortality at 187.5 ppm: 0%

## CC(C)=CC1C(C(=O)OCc2cccc(Oc3ccccc3)c2)C1(C)C (stereo not shown) [Phenothrin, phenothrin]
[2]; [4]
  mortality at 12.5 ppm: 20%
  mortality at 25 ppm: 80%

## N#Cc1nn(-c2c(Cl)cc(C(F)(F)F)cc2Cl)c(N)c1[S+]([O-])C(F)(F)F (stereo not shown) [Fipronil, fipronil]
[2]; [4]
  mortality at 0.4 ppm: 10%
  mortality at 0.8 ppm: 60%
